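The compound was tested at five concentrations on cells cultured in 96-well plates, with a 48-hour exposure period. GI50 = concentration required for 50% inhibition of growth. The concentration for full growth arrest is given as TGI.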
Assays:
Test in all cases: NCI tumour cell line growth inhibition, 48 h
[1] = system: 786-0 renal
[2] = system: A498 renal
[3] = system: A549 NSCLC
[4] = system: ACHN renal
[5] = system: BT-549 breast
[6] = system: CAKI-1 renal
[7] = system: CCRF-CEM leukemia
[8] = system: COLO 205 colon
[9] = system: DU-145 prostate
[10] = system: EKVX NSCLC
[11] = system: HCC-2998 colon
[12] = system: HCT-116 colon
[13] = system: HCT-15 colon
[14] = system: HL-60(TB) leukemia
[15] = system: HOP-62 NSCLC
[16] = system: HOP-92 NSCLC
[17] = system: HS 578T breast
[18] = system: HT29 colon
[19] = system: K-562 leukemia
[20] = system: KM12 colon
[21] = system: LOX IMVI melanoma
[22] = system: M14 melanoma
[23] = system: MALME-3M melanoma
[24] = system: MCF7 breast
[25] = system: MDA-MB-231 breast
[26] = system: MDA-MB-435
[27] = system: MOLT-4 leukemia
[28] = system: NCI-H226 lung
[29] = system: NCI-H23 lung
[30] = system: NCI-H522 lung
[31] = system: NCI/ADR-RES ovarian
[32] = system: OVCAR-3 ovarian
[33] = system: OVCAR-4 ovarian
[34] = system: OVCAR-5 ovarian
[35] = system: OVCAR-8 ovarian
[36] = system: PC-3 prostate
[37] = system: RPMI-8226 leukemia
[38] = system: RXF 393 renal
[39] = system: SF-268 CNS
[40] = system: SF-539 CNS
[41] = system: SK-MEL-2 melanoma
[42] = system: SK-MEL-28 melanoma
[43] = system: SK-MEL-5 melanoma
[44] = system: SK-OV-3 ovarian
[45] = system: SN12C renal
[46] = system: SNB-19 CNS
[47] = system: SNB-75 CNS
[48] = system: SR leukemia
[49] = system: SW-620 colon
[50] = system: T-47D breast
[51] = system: TK-10 renal
[52] = system: U251 CNS
[53] = system: UACC-257 melanoma
[54] = system: UACC-62 melanoma
[55] = system: UO-31 renal
[56] = system: IGROV1 ovarian
[57] = system: SF-295 CNS

SMILES: COc1cc2cn3c4ccc(O)cc4[nH]c(=O)c3c2cc1OC
- GI50 [1]: 71.5 nM
- TGI [1]: 2020 nM
- GI50 [2]: 20 nM
- TGI [2]: 10800 nM
- GI50 [3]: 42 nM
- TGI [3]: 1300 nM
- GI50 [4]: 36.1 nM
- TGI [4]: 1610 nM
- GI50 [5]: 435 nM
- TGI [5]: 2260 nM
- GI50 [6]: 15.8 nM
- TGI [6]: 1300 nM
- GI50 [7]: 22.4 nM
- GI50 [8]: 20.1 nM
- TGI [8]: 429 nM
- GI50 [9]: 22.9 nM
- TGI [9]: 1250 nM
- GI50 [10]: 60.7 nM
- TGI [10]: 2000 nM
- GI50 [11]: 30.7 nM
- TGI [11]: 1610 nM
- GI50 [12]: < 10 nM
- TGI [12]: 1660 nM
- GI50 [13]: 20.7 nM
- TGI [13]: 1350 nM
- GI50 [14]: 26.4 nM
- TGI [14]: 2300 nM
- GI50 [15]: 33.8 nM
- TGI [15]: 1810 nM
- GI50 [16]: 2140 nM
- TGI [16]: 7720 nM
- GI50 [17]: 70.2 nM
- TGI [17]: > 100000 nM
- GI50 [18]: 25 nM
- TGI [18]: 469 nM
- GI50 [19]: < 11.7 nM
- TGI [19]: 1680 nM
- GI50 [20]: 45.1 nM
- TGI [20]: 1480 nM
- GI50 [21]: 13.1 nM
- TGI [21]: 1440 nM
- GI50 [22]: 20.6 nM
- TGI [22]: 1640 nM
- GI50 [23]: 34.9 nM
- TGI [23]: 2060 nM
- GI50 [24]: 34.1 nM
- TGI [24]: 1620 nM
- GI50 [25]: 51.6 nM
- TGI [25]: 1790 nM
- GI50 [26]: < 10 nM
- TGI [26]: 19.2 nM
- GI50 [27]: 43.9 nM
- TGI [27]: 2010 nM
- GI50 [28]: 37.4 nM
- TGI [28]: 16800 nM
- GI50 [29]: 71.6 nM
- TGI [29]: 1900 nM
- GI50 [30]: < 10 nM
- TGI [30]: 26.3 nM
- GI50 [31]: 88.3 nM
- TGI [31]: 2010 nM
- GI50 [32]: < 10 nM
- TGI [32]: 214 nM
- GI50 [33]: 59.4 nM
- TGI [33]: 2110 nM
- GI50 [34]: 269 nM
- TGI [34]: 2360 nM
- GI50 [35]: 31.9 nM
- TGI [35]: 1530 nM
- GI50 [36]: 46.1 nM
- TGI [36]: 2020 nM
- GI50 [37]: 1250 nM
- TGI [37]: 10400 nM
- GI50 [38]: < 12.2 nM
- TGI [38]: 1490 nM
- GI50 [39]: < 10 nM
- TGI [39]: 1550 nM
- GI50 [40]: 17.6 nM
- TGI [40]: 296 nM
- GI50 [41]: 39.8 nM
- TGI [41]: 5360 nM
- GI50 [42]: < 10 nM
- TGI [42]: 681 nM
- GI50 [43]: < 15 nM
- TGI [43]: 563 nM
- GI50 [44]: 36.7 nM
- TGI [44]: 1950 nM
- GI50 [45]: 43.5 nM
- TGI [45]: 1980 nM
- GI50 [46]: 24.5 nM
- TGI [46]: 1940 nM
- GI50 [47]: 19.7 nM
- TGI [47]: 1470 nM
- GI50 [48]: 17.3 nM
- TGI [48]: 1790 nM
- GI50 [49]: < 11.9 nM
- TGI [49]: 1830 nM
- GI50 [50]: 19.9 nM
- TGI [50]: 2050 nM
- GI50 [51]: 45.3 nM
- TGI [51]: 1970 nM
- GI50 [52]: < 10 nM
- TGI [52]: 1230 nM
- GI50 [53]: < 21.2 nM
- TGI [53]: 419 nM
- GI50 [54]: < 10 nM
- TGI [54]: 2330 nM
- GI50 [55]: 39.8 nM
- TGI [55]: 1640 nM

SMILES: CCCCCc1c(C)[nH]c(/C=C2\N=C(c3ccc[nH]3)C=C2CC)c1C
- GI50 [1]: < 10 nM
- TGI [1]: 35.2 nM
- GI50 [2]: < 22.8 nM
- TGI [2]: 267 nM
- GI50 [3]: < 12.5 nM
- TGI [3]: 84.6 nM
- GI50 [4]: 22.5 nM
- TGI [4]: 189 nM
- GI50 [5]: 14.5 nM
- TGI [5]: 170 nM
- GI50 [6]: 19.1 nM
- TGI [6]: 214 nM
- GI50 [8]: 18.8 nM
- TGI [8]: 134 nM
- GI50 [9]: < 10 nM
- TGI [9]: 1190 nM
- GI50 [10]: 21.6 nM
- TGI [10]: 364 nM
- GI50 [11]: < 10 nM
- TGI [11]: 174 nM
- GI50 [12]: < 10 nM
- TGI [12]: 25.5 nM
- GI50 [13]: < 10 nM
- TGI [13]: 125 nM
- GI50 [14]: 15.1 nM
- TGI [14]: 81.4 nM
- GI50 [15]: 12.8 nM
- TGI [15]: 79.5 nM
- GI50 [16]: < 13 nM
- TGI [16]: 42.6 nM
- GI50 [17]: 14 nM
- TGI [17]: 129 nM
- GI50 [18]: < 10 nM
- TGI [18]: 131 nM
- GI50 [56]: 26.8 nM
- TGI [56]: 163 nM
- GI50 [19]: < 10 nM
- TGI [19]: 176 nM
- GI50 [20]: < 10 nM
- TGI [20]: 191 nM
- GI50 [21]: < 10 nM
- GI50 [22]: < 10 nM
- TGI [22]: 23.7 nM
- GI50 [23]: 33.3 nM
- TGI [23]: 187 nM
- GI50 [24]: 20.8 nM
- TGI [24]: 106 nM
- GI50 [25]: < 10 nM
- TGI [25]: 18.6 nM
- GI50 [26]: < 10 nM
- TGI [26]: 108 nM
- GI50 [27]: < 10 nM
- TGI [27]: 108 nM
- GI50 [28]: < 13.1 nM
- TGI [28]: 45.2 nM
- GI50 [29]: < 12.4 nM
- TGI [29]: 135 nM
- GI50 [30]: < 10 nM
- TGI [30]: 106 nM
- GI50 [31]: 13.9 nM
- TGI [31]: 124 nM
- GI50 [32]: 19.9 nM
- TGI [32]: 103 nM
- GI50 [33]: < 17.6 nM
- TGI [33]: 727 nM
- GI50 [34]: 17.9 nM
- TGI [34]: 785 nM
- GI50 [36]: < 11 nM
- TGI [36]: 1230 nM
- GI50 [37]: < 10 nM
- TGI [37]: 96.2 nM
- GI50 [39]: < 10 nM
- TGI [39]: 802 nM
- GI50 [57]: < 10 nM
- TGI [57]: 36.3 nM
- GI50 [40]: 15.3 nM
- TGI [40]: 172 nM
- GI50 [41]: < 10 nM
- TGI [41]: 25.7 nM
- GI50 [42]: 29.6 nM
- TGI [42]: 144 nM
- GI50 [43]: 14.1 nM
- TGI [43]: 27.8 nM
- GI50 [44]: 60.9 nM
- TGI [44]: 383 nM
- GI50 [45]: 16.9 nM
- TGI [45]: 226 nM
- GI50 [46]: 43.3 nM
- TGI [46]: 1460 nM
- GI50 [49]: < 10 nM
- TGI [49]: 170 nM
- GI50 [50]: 18.7 nM
- TGI [50]: 149 nM
- GI50 [51]: < 15.5 nM
- TGI [51]: 166 nM
- GI50 [52]: < 10 nM
- TGI [52]: 135 nM
- GI50 [53]: 28.6 nM
- TGI [53]: 167 nM
- GI50 [54]: 15.8 nM
- TGI [54]: 43 nM
- GI50 [55]: 13.4 nM
- TGI [55]: 35.7 nM

Reference: PubChem BioAssay (NCI)
